Results on 18 compounds are retold here after patent US10745397B2, “1-Substituted 1,2,3,4-tetrahydro-1,7-naphthyridin-8-amine derivatives and their use as EP4 receptor antagonists” (TAKEDA PHARMACEUTICAL COMPANY LIMITED, priority 2015, dated 2020).

In assay [1] the target is T1, hEP4 (C6 glioma cells overexpressing hEP4) (Homo sapiens, UniProt P35408).
T1 construct: host or cells: C6 glioma cells overexpressing hEP4
The assay is described as follows: hEP4 cell based assay (cAMP), inhibition of PGE2 induced cAMP, HTRF. The following applies: 1 μM compound, PGE2 at EC80. The procedure: The functional assay for hEP4 activation and inhibition was carried out via the quantitative determination of agonist, PGE2, induced cAMP response using HTRF in a competitive immunoassay (Cisbio dynamic 2 kit). NCEs at varying concentrations were evaluated for inhibition of PGE2 induced increase in cAMP. Briefly, C6 glioma cells overexpressing hEP4 (Takeda) were cultured in DMEM (low glucose, pyruvate), 10% FBS (Gibco) and PenStep. The cells were harvested on the day of the assay, washed with HBSS+10 mM HEPES (pH 7.4)+0.1% BSA buffer and pre-incubated with varying concentrations of NCE. Each reaction contained 7000 cells and NCEs in HBSS+10 mM HEPES+0.1% BSA assay buffer along with PDE inhibitors IBMX and Ro 20-1724 (final concentration of each inhibitor […]). Following 15 min pre-incubation, the cells were treated with EC80 concentration of agonist PGE2 for 30 min to induce cAMP. Final volume of the assay was 6 μL and DMSO concentration was maintained at 1%. The reaction was terminated with the addition of cAMP labeled with the dye d2 in lysis buffer according to manufacturers' protocol. This was followed by the addition of the anti-cAMP antibody labeled with Cryptate according to the manufacturers' protocol. The reaction was incubated at room temperature in dark for 45 min and the plate was evaluated for fluorescence at 665 nm (FRET) and 620 nm (cryptate emission) on a Flexstation III microplate reader (Molecular Devices, Sunnyvale, Calif.) Ex max: 313 nm; Em1: 620 nm; Em2: 665 nm. Data was analyzed using GraphPad Prism 5 (GraphPad Software Inc., San Diego, Calif.) where cells treated with agonist (EC80) was normalized to 0% inhibition of hEP4 and cells treated with buffer (no agonist) was normalized to 100% inhibition of hEP4. IC50 of NCEs was generated using non-linear regression—Log(inhibitor) vs. response equation in GraphPad Prism 5.
(In TR-FRET formats the signal depends on donor and acceptor labels being close together.)

In the next assay the target is T2, human EP4 receptor (Homo sapiens, UniProt P35408).
T2 construct: expressed in transfected cells; host or cells: FreeStyle293 (HEK293F) cells, transient transfection with pcDNA3.1(+), total membrane fraction
The experiment in a line: hEP4 radioligand binding assay ([3H] PGE2 competitive binding, membrane fractions). The following applies: 300 nM compound; 1 nM [3H] PGE2. The text has this:
The full-length coding sequences for human EP1 (NM_000955), human EP2 (NM_000956), human EP3 (NM_198717) and human EP4 (NM_000958) were cloned into pcDNA3.1(+) vector (Life Technologies, CA, USA). In order to prepare overexpressed EP 1-4 membrane in Freestyle293 cells (Life Technologies, CA, USA), the pcDNA3.1(+) vector encoding a cDNA of the relevant gene was transiently transfected into FreeStyle293 cells using 293Fectin (Life Technologies, CA, USA) according to the manufacturer instruction manual. After 2 days, cultured cells were centrifuged (1,000×g, 10 min, 4° C.) and pellets homogenized by a probe sonicator (Sonics vibracell, Sonics and Materials Inc., USA; 31% Amp, 5 sec pulse, Imin interval, 4 cycles) in ice-cold 50 mM Tris-HCl buffer (pH 7.5 at 25° C.) containing 0.5 mM EDTA, 250 mM Sucrose and 10 mM MgCl2. Cell homogenates were centrifuged (890×g, 10 min, 4° C.), and the supernatant was recovered. Total membrane fractions were isolated by ultracentrifugation (140,000×g, 60 min, 4° C.). Pellets were re-suspended in the same buffer, and stored at −80° C. until use. The protein concentration in homogenate was determined with the BCA Protein Assay Kit (Pierce Biotechnology, Inc., IL, USA) according to the manufacturer protocol.
The binding affinity of the compounds was evaluated using a competitive radioligand binding assay which measured the specific binding of [3H] PGE2 to the human EP4 receptor. Briefly, varying concentrations of NCEs were incubated with cell membrane fractions generated HEK293F cells transiently transfected with human EP4 receptor as described above. Each reaction consisted of 10 μg membrane protein and NCE in 50 mM Tris-HCl, pH-6.0 by NaOH, 10 mM MgCl2 and 0.5 mM EDTA assay buffer. Radioligand, [3H] PGE2 (American Radiochemicals Inc. Specific Activity 180 Ci/mmol), at a final of 1 nM was added to each reaction where the final assay volume was 200 μL and concentration of DMSO was adjusted to 1%. Appropriate controls included total binding in the assay (vehicle control) and control for non-specific binding. Non-specific binding was evaluated by incubating the hEP4 protein with 10 μM unlabeled PGE2 under the same assay conditions as NCEs. The reaction was incubated at room temperature for 2 hours and terminated by harvesting the reaction contents to a PEI coated GF/C filter plate (PerkinElmer). The plate was washed four times with cold 50 mM Tris-HCl, pH-7.5 wash buffer and dried at 50° C. for 2 hours or at 37° C. overnight. [3H] PGE2 bound to the protein was quantified by the addition of 25 μL of Microscint PS (PerkinElmer) and plate was read on MicroBeta2 liquid Scintillation and luminescence counter (PerkinElmer). Data was analyzed using GraphPad Prism 5 (GraphPad Software Inc., San Diego, Calif.) where non-specific binding was normalized to 0% specific binding of [3]PGE2 and vehicle control (DMSO) was normalized to 100% specific binding of [3]PGE2. Binding affinity of NCEs, Ki, was generated using One site—Fit Ki equation in GraphPad Prism 5.

T1 sequence (P35408 whole entry): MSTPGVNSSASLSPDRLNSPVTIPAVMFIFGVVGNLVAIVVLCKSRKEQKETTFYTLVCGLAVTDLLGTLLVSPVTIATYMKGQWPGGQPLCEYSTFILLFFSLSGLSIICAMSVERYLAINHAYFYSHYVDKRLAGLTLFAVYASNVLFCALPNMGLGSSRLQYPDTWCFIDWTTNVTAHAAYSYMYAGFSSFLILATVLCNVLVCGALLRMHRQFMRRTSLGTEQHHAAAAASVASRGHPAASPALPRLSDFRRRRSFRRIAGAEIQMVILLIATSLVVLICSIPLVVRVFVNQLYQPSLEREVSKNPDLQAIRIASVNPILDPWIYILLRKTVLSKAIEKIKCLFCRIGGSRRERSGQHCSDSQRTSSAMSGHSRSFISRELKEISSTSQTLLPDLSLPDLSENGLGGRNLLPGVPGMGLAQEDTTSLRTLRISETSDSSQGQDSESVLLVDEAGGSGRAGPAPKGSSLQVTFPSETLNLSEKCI
T2 sequence (P35408 whole entry): as above

As usually defined, the inhibition is the share of the control response that was lost under treatment. Read a high inhibition as a response far below the control. Compound `CONC(=O)c1ccc([C@H](C)Nc2nccc3c2N(Cc2ccc(C(F)(F)F)cc2)CCO3)cc1` [Example D2, N-Methoxy-4-[(1S)-1-[[4-[[4-(trifluoromethyl)phenyl]methyl]-2,3-dihydropyrido[4,3-b][1,4]oxazin-5-yl]amino]ethyl]benzamide] came in with an inhibition at 1 µM in assay [1] of 92%. This compound gave an inhibition at 0.3 µM on human EP4 receptor of 87%.
For `O=C(O)c1ccc(C2(Nc3nccc4c3N(Cc3ccc(Cl)cc3)CCO4)CC2)cc1` [Example B19, 4-[1-[[4-[(4-chlorophenyl)methyl]-2,3-dihydropyrido[4,3-b][1,4]oxazin-5-yl]amino]cyclopropyl]benzoic acid], in that order: 81% and 92%.
Compound `C[C@H](Nc1nccc2c1N(CCOc1ccc(F)cc1)CCO2)c1ccc(C(=O)O)cc1` [Example B3, 4-[(1S)-1-[[4-[2-(4-Fluorophenoxy)ethyl]-2,3-dihydropyrido[4,3-b][1,4]oxazin-5-yl]amino]ethyl]benzoic acid] yielded an inhibition at 1 µM in assay [1] of 90%. At human EP4 receptor, this compound returned an inhibition at 0.3 µM of 81%.
On the same counts, the results for `C[C@H](Nc1nccc2c1N(Cc1ccc(F)c(F)c1)CCO2)c1ccc(C(=O)O)cc1` [Example B6, 4-[(1S)-1-[[4-[(3,4-difluorophenyl)methyl]-2,3-dihydropyrido[4,3-b][1,4]oxazin-5-yl]amino]ethyl]benzoic acid] are 100% and 89%.
In turn, `O=C(O)c1ccc(C2(Nc3nccc4c3N(Cc3cccc(Cl)c3)CCO4)CC2)cc1` [Example B24, 4-[1-[[4-[(3-chlorophenyl)methyl]-2,3-dihydropyrido[4,3-b][1,4]oxazin-5-yl]amino]cyclopropyl]benzoic acid acid] gave an inhibition at 1 µM in assay [1] of 71%. On human EP4 receptor, this compound displayed an inhibition at 0.3 µM of 100%.
For `O=C(O)c1ccc(C2(Nc3nccc4c3N(Cc3ccc(F)cc3)CCO4)CC2)cc1` [Example B18, 4-[1-[[4-[(4-fluorophenyl)methyl]-2,3-dihydropyrido[4,3-b][1,4]oxazin-5-yl]amino]cyclopropyl]benzoic acid], in that order: 79% and 93%.
`O=C(O)c1ccc(C2(Nc3nccc4c3N(Cc3cccc(F)c3)CCO4)CC2)cc1` [Example B16, 4-[1-[[4-[(3-fluorophenyl)methyl]-2,3-dihydropyrido[4,3-b][1,4]oxazin-5-yl]amino]cyclopropyl]benzoic acid]: 1 µM produced 88% inhibition in assay [1]. This compound also showed an inhibition at 0.3 µM at human EP4 receptor of 93%.
`C[C@H](Nc1nccc2c1N(Cc1ccc(C(F)(F)F)cc1)CCO2)c1ccc(C#N)cc1` [Example E1, 4-[(1S)-1-[[4-[[4-(Trifluoromethyl)phenyl]methyl]-2,3-dihydropyrido[4,3-b][1,4]oxazin-5-yl]amino]ethyl]benzonitrile] returned an inhibition at 1 µM in assay [1] of 91%. Besides, on human EP4 receptor, the inhibition at 0.3 µM is 92%.
Regarding `O=C(O)c1ccc(C2(Nc3nccc4c3N(Cc3ccc(C(F)(F)F)cc3)CCO4)CC2)cc1` [Example B20, 4-[1-[[4-[[4-(trifluoromethyl)phenyl]methyl]-2,3-dihydropyrido[4,3-b][1,4]oxazin-5-yl]amino]cyclopropyl]benzoic acid], in assay [1], the inhibition at 1 µM stood at 92%. Besides, testing at 0.3 µM on human EP4 receptor gave an inhibition of 92%.
Take `C[C@H](Nc1nccc2c1N(Cc1cc(F)cc(F)c1)CCO2)c1ccc(C(=O)O)cc1` [Example B13, 4-[(1S)-1-[[4-[(3,5-difluorophenyl)methyl]-2,3-dihydropyrido[4,3-b][1,4]oxazin-5-yl]amino]ethyl]benzoic acid]: in assay [1], the inhibition at 1 µM amounted to 100%. The same compound had an inhibition at 0.3 µM on human EP4 receptor of 92%.
In assay [1], `C[C@H](Nc1nccc2c1N(Cc1ccc(-c3ccccc3)cc1)CCO2)c1ccc(C(=O)O)cc1` [Example B30, 4-[(1S)-1-[[4-[(4-phenylphenyl)methyl]-2,3-dihydropyrido[4,3-b][1,4]oxazin-5-yl]amino]ethyl]benzoic acid] registered an inhibition at 1 µM of 77%. This compound came in with an inhibition at 0.3 µM on human EP4 receptor of 87%.
For `C[C@H](Nc1nccc2c1N(Cc1cccc(C(F)(F)F)c1)CCO2)c1ccc(C(=O)O)cc1` [Example B14, 4-[(1S)-1-[[4-[[3-(trifluoromethyl)phenyl]methyl]-2,3-dihydropyrido[4,3-b][1,4]oxazin-5-yl]amino]ethyl]benzoic acid], 1 µM produced 100% inhibition in assay [1]. The same compound had an inhibition at 0.3 µM on human EP4 receptor of 93%.
With `CCONC(=O)c1ccc([C@H](C)Nc2nccc3c2N(Cc2ccc(C(F)(F)F)cc2)CCO3)cc1` [Example D4, N-ethoxy-4-[(1S)-1-[[4-[[4-(trifluoromethyl)phenyl]methyl]-2,3-dihydropyrido[4,3-b][1,4]oxazin-5-yl]amino]ethyl]benzamide], the inhibition at 1 µM in assay [1] was 93%. This compound also had an inhibition at 0.3 µM at human EP4 receptor of 92%.
The compound `C[C@H](Nc1nccc2c1N(Cc1ccccc1)CCO2)c1ccc(C(=O)O)cc1` [Example B1, 4-[(1S)-1-[(4-Benzyl-2,3-dihydropyrido[4,3-b][1,4]oxazin-5-yl)amino]ethyl]benzoic acid] registered an inhibition at 1 µM in assay [1] of 100%. Also, 0.3 µM produced 93% inhibition at human EP4 receptor.
On to `C[C@H](Nc1nccc2c1N(Cc1ccc(C(F)(F)F)cc1)CCO2)c1ccc(C(N)=O)cc1` [Example D1, 4-[(1S)-1-[[4-[[4-(Trifluoromethyl)phenyl]methyl]-2,3-dihydropyrido[4,3-b][1,4]oxazin-5-yl]amino]ethyl]benzamide], for which 1 µM produced 98% inhibition in assay [1]. This compound showed an inhibition at 0.3 µM at human EP4 receptor of 85%.
Regarding `C[C@H](Nc1nccc2c1N(Cc1ccc(F)cc1)CCO2)c1ccc(C(=O)O)cc1` [Example B9, 4-[(1S)-1-[[4-[(4-fluorophenyl)methyl]-2,3-dihydropyrido[4,3-b][1,4]oxazin-5-yl]amino]ethyl]benzoic acid], in assay [1], the inhibition at 1 µM came out at 100%. Moreover, the inhibition at 0.3 µM on human EP4 receptor turned out to be 97%.
`C[C@@H](Nc1nccc2c1N(Cc1cccc(Cl)c1)CCO2)c1ccc(C(=O)O)cc1` [Example B33, 4-[(1R)-1-[[4-[(3-chlorophenyl)methyl]-2,3-dihydropyrido[4,3-b][1,4]oxazin-5-yl]amino]ethyl]benzoic acid] displayed an inhibition at 1 µM in assay [1] of 36%. In addition, the inhibition at 0.3 µM on human EP4 receptor was 66%.
On the same counts, the results for `Cc1cccc(CN2CCOc3ccnc(NC4(c5ccc(C(=O)O)cc5)CC4)c32)c1` [Example B25, 4-[1-[[4-(m-tolylmethyl)-2,3-dihydropyrido[4,3-b][1,4]oxazin-5-yl]amino]cyclopropyl]benzoic acid] are 79% and 98%.
